Assay results reported in US12209086B2, “FGFR3 inhibitor compounds” (ELI LILLY AND COMPANY, priority 2021, dated 2025).

Target: T1, FGFR3 protein (Homo sapiens, UniProt P22607)
T1 construct: purchased Reaction Biology 1068
Assay: FGFR3 enzyme assay (KinEASE-TK HTRF kinase assay)
Format: biochemical
Conditions: 0.25 nM enzyme, ATP at Km, 15 min pre-incubation on ice, 30 min at 30° C.
Experimental: FGFR3 and FGFR1 Enzyme Assay
Enzyme activity was monitored using the KinEASE™-TK Assay Kit (Cisflio, Cat. No. 62TK0PEC) according to the manufacturer's instructions. All assays were performed at the respective KmATP for each kinase in KinEASE™ Kinase Buffer.
Titration of compounds were performed in a half-log manner in 100% dimethyl sulfoxide (DMSO) starting at 1 uM. Prior to the initiation of the reaction by adenosine triphosphate (ATP), FGFR1 protein and compounds were pre-incubated for 15 minutes at room temperature, and FGFR3 protein and compounds were pre-incubated on ice for 15 minutes. Reactions proceeded for 30 min at 30° C. Plates were quenched by the addition of the Anti-TK cryptate antibody/Streptavidin-XL665 mixture.
Ratios were converted to a percent of control (POC) using a ratiometric emission factor. One hundred POC was determined using no test compound, and 0 POC was determined in the presence of 1 uM of an appropriate control inhibitor.

T1 sequence (P22607 23-806): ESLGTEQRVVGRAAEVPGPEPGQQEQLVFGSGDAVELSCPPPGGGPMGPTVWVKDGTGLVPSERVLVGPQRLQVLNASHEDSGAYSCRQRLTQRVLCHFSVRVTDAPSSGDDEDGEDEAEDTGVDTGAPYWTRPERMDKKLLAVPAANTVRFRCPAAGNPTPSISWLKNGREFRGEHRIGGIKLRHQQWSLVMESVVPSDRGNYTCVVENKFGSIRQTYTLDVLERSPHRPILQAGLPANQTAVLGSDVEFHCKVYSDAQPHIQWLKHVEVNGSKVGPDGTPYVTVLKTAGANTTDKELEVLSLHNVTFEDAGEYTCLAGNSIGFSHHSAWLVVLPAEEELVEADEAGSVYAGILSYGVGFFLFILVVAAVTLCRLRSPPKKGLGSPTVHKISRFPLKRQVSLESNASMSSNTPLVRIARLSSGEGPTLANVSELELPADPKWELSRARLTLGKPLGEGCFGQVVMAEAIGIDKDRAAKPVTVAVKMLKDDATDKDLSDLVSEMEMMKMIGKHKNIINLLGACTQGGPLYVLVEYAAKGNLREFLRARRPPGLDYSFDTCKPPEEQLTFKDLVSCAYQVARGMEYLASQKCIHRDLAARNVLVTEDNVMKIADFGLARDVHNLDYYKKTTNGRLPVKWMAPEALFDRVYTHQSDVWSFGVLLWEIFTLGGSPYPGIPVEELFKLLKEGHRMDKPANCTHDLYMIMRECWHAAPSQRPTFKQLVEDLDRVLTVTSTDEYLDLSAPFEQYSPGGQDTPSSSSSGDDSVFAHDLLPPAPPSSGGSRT

`COc1cc(-c2cnn([C@H]3C[C@H]4CC[C@@H](C3)N4C#N)c2C)cn2ncc(C#N)c12` [Example 183, 6-(1-((1R,3r,5S)-8-Cyano-8-azabicyclo[3.2.1]octan-3-yl)-5-methyl-1H-pyrazol-4-yl)-4-methoxypyrazolo[1,5-a]pyridine-3-carbonitrile] and `Cc1c(-c2cc(OCC(C)(O)c3ccc(F)cn3)c3c(F)cnn3c2)nnn1C1CCN(C#N)CC1` (single isomer, unassigned) [Example 157, 4-[4-[3-Fluoro-4-[2-(5-fluoro-2-pyridyl)-2-hydroxy-propoxy]pyrazolo[1,5-a]pyridin-6-yl]-5-methyl-triazol-1-yl]piperidine-1-carbonitrile] cannot be ordered by IC50: under 50 nM for the first, under 50 nM for the second.

`Cc1c(-c2cc(OC(C)c3cncc(C(F)(F)F)c3)n3c(C#N)cnc3c2)nnn1C1CCN(C#N)CC1` (single isomer, unassigned; isomer 1) [Example 41, 7-[1-(1-Cyano-4-piperidyl)-5-methyl-triazol-4-yl]-5-[1-[5-(trifluoromethyl)-3-pyridyl]ethoxy]imidazo[1,2-a]pyridine-3-carbonitrile, Isomer 1] and `Cc1c(-c2cc(O[C@H](C)c3nncn3CC(F)(F)F)n3c(C#N)cnc3c2)nnn1C1CCN(C#N)CC1` [Example 274, 7-[1-(1-Cyano-4-piperidyl)-5-methyl-triazol-4-yl]-5-[(1R)-1-[4-(2,2,2-trifluoroethyl)-1,2,4-triazol-3-yl]ethoxy]imidazo [1,2-a]pyridine-3-carbonitrile] cannot be ordered by IC50: under 50 nM for the first, under 100 nM for the second.
